According to ChEMBL document CHEMBL1126338, “The synthesis of a conformationally rigid calcium channel blocker” (Bioorg Med Chem Lett, 1992):

Legend:
Oryctolagus cuniculus = species: Oryctolagus cuniculus; experiment: Inhibition of K+ induced contraction of rabbit aorta; assay type: functional; details: read-out: I50
[1] = Inhibition of [3H]D-cis-diltiazem binding to calcium channel of isolated guinea pig skeletal muscle microsomal preparation; assay type: microsomes, Cavia porcellus, Muscle tissue

IC50 (Oryctolagus cuniculus) | Compound | Kd [1]
950 nM | COc1ccc([C@@H]2CC3c4ccccc4C2C[C@@]32CCNC2)cc1 (stereo partly specified) | 330 nM
2000 nM | COc1ccc([C@@H]2CC3c4ccccc4C2C[C@]32CCNC2)cc1 (stereo partly specified) | 1260 nM
1800 nM | COc1ccc([C@@H]2Sc3ccccc3N(CCN(C)C)C(=O)[C@@H]2OC(C)=O)cc1 [DILTIAZEM] | 380 nM
